Consider seven compounds from patent publication US11998600B2, “Enhancing the therapeutic activity of an immune checkpoint inhibitor” (MaineHealth, priority 2015, dated 2024).

One assay concerns P38MAPK. Kind of assay: P38MAPK phosphorylation in HUVECs attached to collagen peptides, Western blot. In kind it is cell-based, human. As to conditions: PP2 10 μM vs DMSO; FIG. 7F. The method, then: (§1) Endothelial cells (HUVECs or HRMVECs) were incubated in serum free media with 1 mM MgCl2, 0.2 mM MnCl2 in the presence of a Src inhibitor, PP2, (10 μM) a P38MAPK inhibitor, SB202190 (10 μM) or vehicle only (DMSO) for 10 min at 37° C. Treated cells were then seeded on to immobilized P-1 and P-2 and lysates were collected at 15 min.
Whole cell and CAM tissue lysates were collected in RIPA buffer supplemented with 1× protease inhibitor and 1× phosphatase inhibitor and were run on polyacrylamide gels using denaturing conditions. Prior to loading the gels, 6× sample buffer was added to each of the lysates (final concentration 1×) and boiled for five minutes. Twenty to 50 μg of total protein were loaded into each lane. For detection of proteins larger than 50 kD, 10% gels were used; for proteins smaller than 50 kD 15% gels were used. Gels were run at 60 volts (v) until the dye front passed through the stacking gel, and then the voltage was increased to 100V for the remainder of the separation. Precision Plus protein standards (Bio-Rad) were used to visualize migration. Protein was transferred to nitrocellulose membranes using a wet tank system and blocked for 1 h using 10% non-fat dried milk in tris-buffered saline with 0.01% Tween-20 (TBS-T). […] Western blot bands were quantified using Image J software based on pixel intensity. […]
For orientation: A western blot detects proteins with antibodies after separation by electrophoresis.

Another assay deals with β3-integrin. Description: β3-integrin phosphorylation in endothelial cells attached to collagen peptides, Western blot. In kind it is cell-based, human. Particulars: PP2 10 μM vs DMSO; FIG. 7E. The method, then:
as §1
Whole cell and CAM tissue lysates were collected in RIPA buffer supplemented with 1× protease inhibitor and 1× phosphatase inhibitor and were run on polyacrylamide gels using denaturing conditions. Prior to loading the gels, 6× sample buffer was added to each of the lysates (final concentration 1×) and boiled for five minutes. Twenty to 50 μg of total protein were loaded into each lane. For detection of proteins larger than 50 kD, 10% gels were used; for proteins smaller than 50 kD 15% gels were used. […] Western blot bands were quantified using Image J software based on pixel intensity.
(§2) Because both RGD containing peptides bind αvβ3 coupled with the differential effect of these peptides on angiogenesis and inflammation, it was determined whether the RGD peptides differentially altered αvβ3-mediated signaling. […] Therefore, the differential phosphorylation of these protein kinases following the early mechanical-mediated interactions with the RGD containing collagen peptides was assessed. […]

For the next assay, the system named is YAP. Kind of assay: Nuclear YAP in HRMVEC stimulated with soluble peptide, with Src or P38MAPK inhibitor. Particulars: inhibitors 10 μM; FIGS. 8E and 8F. The class given is cell-based, human.
The subject of assay [1] is chick chorioallantoic membrane (CAM). Kind of assay: Chick CAM angiogenesis assay, induction by RGD collagen peptides. The class given is in vivo. Particulars: inhibitor SB202190 10 μM vs DMSO control; FIG. 6F. The method, then:
(§3) The chick chorioallantoic membrane (CAM) assays were carried out with some modifications (19). For all experiments CAMs of 10-day-old chick embryos obtained from Charles River (North Franklin, CT) were separated from the shell membrane. Filter discs either non-treated (inflammation assays) pretreated (angiogenesis assays) with cortisone acetate (3.0 mg/ml) containing RPMI only or FGF-2 (40 ng). CAMs were either non-treated or treated topically with Mab XL313, XL166 or a non-specific control antibody (10 μg/embryo every 24 h for three consecutive treatments). […] At the end of the incubation period the embryos were sacrificed and the CAM tissues were analyzed. Angiogenesis was quantified by counting the number of angiogenic branching blood vessels within the area of the filter disc. The angiogenic index was determined by subtracting the mean number of blood vessel branch points from untreated CAMs from each experimental condition. Eight to twelve embryos were used per condition and experiments were repeated at least three times.
To examine this possibility, the effects of the RGDKGE (SEQ ID NO. 1) containing collagen peptide on angiogenesis and inflammation in the chick CAM were assessed.

For assay [2] the test system is unchanged. Description: Chick CAM inflammation assay, FGF-2 induced, antibody treatment. The class given is in vivo. Particulars: chick CAM, FGF-2 stimulated; vs no treatment or control antibody; FIG. 3E. The method, then:
as §3, with “Eight to twelve embryos were used per condition and experiments were repeated at least three times.” left out
The chick CAM has been routinely used to assess inflammation and granulation tissue formation, which are largely dependent on infiltration of chick heterophils (the avian equivalent of neutrophils), macrophages and activated fibroblasts (36,37). To study the potential differential biological impact of RGD epitopes, FGF-2 induced inflammation was examined by carrying out similar experiments in the absence of cortisone acetate and quantifying CAM thickening. […]

Assay [3] has the same test system. Kind of assay: Chick CAM inflammation assay, induction by RGD collagen peptides. The class given is in vivo. As to conditions: chick CAM, no cortisone acetate; FIG. 5D. The method, then:
as §3
The effects of the soluble RGD containing collagen peptides on inflammation were examined.

The next assay has as its system HUVEC. Kind of assay: Cell proliferation assay, HUVEC. In kind it is cell-based, human. As to conditions: peptide 100 ng/ml, 24 hours; FIG. 8C. The method, then:
(§4) HUVECs (WT, shYAP1 or control transfected) or HRMVECs were plated at 2,000 cells per well with complete EGM-2 media containing 2.0% FBS in the absence or presence of P-1, P-2 or P-C (100 ng/ml) and allowed to grow for 24 hours. Cell growth was monitored using a BrdU or MMT assay kits according to manufacturer's instructions. All assays were completed at least three times in triplicate wells.

The subject of a further assay is HRMVEC. Description: Cell proliferation assay, HRMVEC. The class given is cell-based, human. As to conditions: peptide 100 ng/ml, 24 hours; FIG. 8D. The method, then:
as §4

A further assay has as its system Fak. Kind of assay: Fak phosphorylation in endothelial cells attached to collagen peptides. Particulars: serum free conditions. The class given is cell-based, human. The method, then:
Whole cell and CAM tissue lysates were collected in RIPA buffer supplemented with 1× protease inhibitor and 1× phosphatase inhibitor and were run on polyacrylamide gels using denaturing conditions. Prior to loading the gels, 6× sample buffer was added to each of the lysates (final concentration 1×) and boiled for five minutes. Twenty to 50 μg of total protein were loaded into each lane. For detection of proteins larger than 50 kD, 10% gels were used; for proteins smaller than 50 kD 15% gels were used. Gels were run at 60 volts (v) until the dye front passed through the stacking gel, and then the voltage was increased to 100V for the remainder of the separation. Precision Plus protein standards (Bio-Rad) were used to visualize migration. […] Western blot bands were quantified using Image J software based on pixel intensity.
as §2

Assay [4] concerns human retinal microvascular endothelial cells (HRMVEC). Kind of assay: Cell adhesion to immobilized RGD collagen peptides, HRMVEC. As to conditions: peptides immobilized 100 μg/ml; FIG. 1C. In kind it is cell-based. The method, then:
(§5) RGD peptides (P-1, P-2, P-3, P-4, P-5, and P-C) were immobilized (100 μg/ml) to wells. HUVEC, HMVEC, HRMVEC, and HDF cells were suspended in adhesion buffer (RPMI containing 1 mM MgCl2, 0.2 mM MnCl2 and 0.5% BSA) and 1×10^5 cells were seeded into the wells in the presence or absence of P4C10, LM609, P1F6 or control antibodies (100 μg/ml). Cells were allowed to attach for 25 min at 37° C. Media containing non-attached cells was aspirated and attached cells were washed with PBS and stained with crystal violet. Cell adhesion was quantified by measuring the optical density of eluted dye. Adhesion assays were completed at least three times with triplicate wells.

In assay [5] the test system is human umbilical vein endothelial cell (HUVEC). Description: Cell adhesion to immobilized RGD collagen peptides, HUVEC. The class given is cell-based. As to conditions: peptides immobilized 100 μg/ml; 25 min at 37° C; FIG. 1A. The method, then:
as §5

The subject of the next assay is human dermal fibroblasts. Description: Cell adhesion to immobilized RGD collagen peptides, HDF. The class given is cell-based. As to conditions: peptides immobilized 100 μg/ml; FIG. 1D. The method, then: as §5
Assay [6] deals with human microvascular endothelial cells (HMVEC). Description: Cell adhesion to immobilized RGD collagen peptides, HMVEC. In kind it is cell-based. Particulars: peptides immobilized 100 μg/ml; FIG. 1B. The method, then:
as §5

Assay [7] deals with endothelial cells in which YAP was knocked down. Kind of assay: Cell proliferation assay, endothelial cells transduced with YAP specific shRNA. The class given is cell-based, human. Particulars: soluble peptide (FIG. 8H) or VEGF 50 ng/ml (FIG. 8I). The method, then: as §4
Raw cells were transfected with 1 μg of HuSH shRNA plasmids for collagen type I, alpha 2 using Amaxa cell line nucleofector kit V (program #T024). Constructs expressing 21-nucleotide short hairpin RNAs (shRNA) targeting human YAP (shYAP) or non-targeting control (shNT, Sigma-Aldrich, SHC002) were used. Humantargeting shYAP1 lentiviral shRNA was obtained from the Thermo Scientific RNAi consortium (TRCN0000107625). Constructs were packaged into lentivirus, pseudotyped with the vesicular stomatitis virus glycoprotein. Transduction was performed by incubating cells with lentivirus, and stably transduced cells were subsequently used for studies. All cell lines were verified by morphology and mouse and human YAP-specific PCR. […] Endothelial cells were certified mycoplasma-negative by PCR (Lonza), and primary cell cultures were used within the indicated passage numbers. Cells were transduced and selected using puromycin.
Endothelial cells with YAP specific or non-specific shRNAs were transduced.

Regarding `CC(C)(C)n1nc(-c2ccc(Cl)cc2)c2c(N)ncnc21` [PP2, reference compound], the “P38MAPK phosphorylation following binding to collagen peptide P-2, with inhibitor” value with P38MAPK is recorded as “reduced”. In the assay on β3-integrin, the “β3 phosphorylation following binding to collagen peptide P-2, with inhibitor” value is “reduced”. In the assay on YAP, the “reduction of nuclear YAP accumulation in P-2 stimulated endothelial cells as compared to control” value is on record as “approximately 50%”.

Turning to `Oc1ccc(-c2nc(-c3ccncc3)c(-c3ccc(F)cc3)[nH]2)cc1` [SB202190, reference compound], the “reduction of nuclear YAP accumulation in P-2 stimulated endothelial cells as compared to control” value in the assay with YAP is “approximately 50%”. In addition, the “effect on P-2 induced angiogenesis in the chick CAM” value in assay [1] is listed as “reduced”.

For the compound `CC(=O)OCC(=O)[C@@]1(O)CC[C@H]2[C@@H]3CCC4=CC(=O)CC[C@]4(C)[C@H]3C(=O)C[C@@]21C` [cortisone acetate, reference compound], in assay [2], the “reduction of CAMs exhibiting inflammation (thickening)” value is reported as “greater than 80%”.

With “KGDRGDAPG [Mab P-1, Synthetic RGDAPG containing collagen type-I peptide, Colla1 742-750; made with flanking cysteines (…)]”, the “CAM inflammation following stimulation with peptide” value in assay [3] is reported as “Minimal evidence of tissue inflammation”. Besides, the “HUVEC growth with soluble peptide” value in the assay on HUVEC was “minimal effect”. Moreover, the “HRMVEC growth with soluble peptide” value with HRMVEC is given as “minimal effect”. The “Fak phosphorylation following ligation of peptide” value in the assay with Fak is reported as “Minimal Fak phosphorylation”.

Take QGPSGAPGE [P-C, reference compound]: the “CAM inflammation following stimulation with peptide” value in assay [3] was “Minimal evidence of tissue inflammation”. In addition, the “HRMVEC adhesion to immobilized peptides” value in [4] is on record as “failed to support interactions”. For the same compound, the “HUVEC adhesion to immobilized peptides” value in [5] is listed as “failed to support adhesion”. Further, the “HDF adhesion to immobilized peptides” value in the assay on human dermal fibroblasts is recorded as “failed to support interactions”. The “HMVEC adhesion to immobilized peptides” value in assay [6] is “failed to support interactions”.

On to “RGPRGDQGP [Mab P-5, Synthetic RGD containing collagen type-I peptide, Colla2 819-827 (…)]”, for which the “HUVEC adhesion to immobilized peptides” value in assay [5] was “highest levels of adhesion”.

For VEGF, the “endothelial cell growth in YAP knock down cells” value in [7] is given as “enhanced growth”.
